From patent US9937151B2, “Carbapenem antibacterials with gram-negative activity” (priority 2010, dated 2018)
Values after ≈ are worked out from the molar mass of the structure shown.

Test system: G(−) bacterial strains
Experiment: Dilution antimicrobial susceptibility tests (MIC, NCCLS agar dilution / broth dilution)
Assay type: cell-based, Gram-negative organisms
Conditions: unit assumed
Method: The MIC (minimum inhibitory concentration) was determined by the NCCLS (National Committee for Clinical Laboratory Standards) methods 2000. Methods for dilution antimicrobial susceptibility testing for bacteria that growth aerobically (M7-A5, vol. 20, No. 2). The agar dilution method for determining antimicrobial susceptibility was carried out using Mueller-Hinton agar. A final inoculum of 10^4 CFU/spot was applied with an inoculation device. Broth dilution tests were performed with 5×10^5 CFU/well in 96 well plates. The susceptibilities of streptococci were determined by Mueller-Hinton agar supplemented with 5% sheep blood. All assays were run with the indicated control strains, available from the ATCC (American Type Culture Collection, Rockville, Md.).
Abbreviations used in Table 1 are defined as follows: Cf-R: Ceftazidime Resistance, Ci-R: Ciprofloxacin Resistance, Gen-R: Gentamycin Resistance, Imp-R: Imipenem Resistance, Mp-R: Meropenem Resistance, Ofx-R: Ofloxacin Resistance, B+: β-lactamase Production, AmpC: AmpC-lactamase Hyper production, CBPase: Carbapenemase Production.

[1] = strain #1 Acinetobacter calcoaceticus
[2] = strain #2 Acinetobacter baumannii, Cf-R, Ci-R
[3] = strain #3 Acinetobacter baumannii, Cf-R, Ci-R, Mp-I
[4] = strain #4 Acinetobacter baumannii, Cf-R, Imp-I, CBPase
[5] = strain #7 Enterobacter aerogenes
[6] = strain #8 Enterobacter cloacae, Cf-R, B+
[7] = strain #9 Enterobacter cloacae, Cf-R
[8] = strain #10 Escherichia coli, Ci-R
[9] = strain #11 Escherichia coli, Ci-R, AmpC
[10] = strain #15 Klebsiella pneumoniae
[11] = strain #16 Moraxella catarrhalis
[12] = strain #21 Providencia rettgeri
[13] = strain #22 Salmonella typhimurium
[14] = strain #25 Shigella dysenteriae
[15] = strain #28 Stenotrophomonas maltophilia

C[C@@H](O)C1C(=O)N2C(C(=O)O)=C(CN3CC[C@H](C(=O)NCC(N)=O)C3)[C@H](C)C12 (stereo partly drawn) [Compound 137]
MIC [1]: 1 µg/mL (≈ 2.54 µM)
MIC [2]: 2 µg/mL (≈ 5.07 µM)
MIC [3]: 8 µg/mL (≈ 20.3 µM)
MIC [4]: 2 µg/mL (≈ 5.07 µM)
MIC (strain #5 Citrobacter diversus): 0.5 µg/mL (≈ 1.27 µM)
MIC (strain #6 Citrobacter freundii): 1 µg/mL (≈ 2.54 µM)
MIC [5]: 2 µg/mL (≈ 5.07 µM)
MIC [6]: 0.5 µg/mL (≈ 1.27 µM)
MIC [7]: 1 µg/mL (≈ 2.54 µM)
MIC [8]: 0.5 µg/mL (≈ 1.27 µM)
MIC [9]: 0.5 µg/mL (≈ 1.27 µM)
MIC (strain #12 Escherichia coli): 0.5 µg/mL (≈ 1.27 µM)
MIC (strain #13 Escherichia coli): 1 µg/mL (≈ 2.54 µM)
MIC (strain #14 Klebsiella oxytoca): 1 µg/mL (≈ 2.54 µM)
MIC [10]: 1 µg/mL (≈ 2.54 µM)
MIC [11]: ≤ 0.008 µg/mL
MIC (strain #17 Morganella Morganii): 4 µg/mL (≈ 10.1 µM)
MIC (strain #18 Morganella Morganii): 4 µg/mL (≈ 10.1 µM)
MIC (strain #19 Proteus vulgaris): 2 µg/mL (≈ 5.07 µM)
MIC (strain #20 Proteus mirabilis): 0.5 µg/mL (≈ 1.27 µM)
MIC [12]: 2 µg/mL (≈ 5.07 µM)
MIC [13]: 1 µg/mL (≈ 2.54 µM)
MIC (strain #23 Serratia marcescens): 2 µg/mL (≈ 5.07 µM)
MIC (strain #24 Serratia marcescens): 2 µg/mL (≈ 5.07 µM)
MIC [14]: 1 µg/mL (≈ 2.54 µM)
MIC (strain #26 Shigella sonnei): 1 µg/mL (≈ 2.54 µM)
MIC (strain #27 Shigella flexneri): 0.5 µg/mL (≈ 1.27 µM)
MIC [15]: 0.5 µg/mL (≈ 1.27 µM)

CC(O)C1C(=O)N2C(C(=O)O)=C(CN3CC(O)C(C(=N)N)C3)C(C)C12 (mixture of isomers) [Compound 185b]
MIC [1]: 0.13 µg/mL
MIC [2]: 0.5 µg/mL
MIC [3]: 2 µg/mL
MIC [4]: 1 µg/mL
MIC (strain #5 Citrobacter diversus): 0.063 µg/mL
MIC (strain #6 Citrobacter freundii): 0.063 µg/mL
MIC [5]: 0.25 µg/mL
MIC [6]: 0.063 µg/mL
MIC [7]: 0.13 µg/mL
MIC [8]: 0.031 µg/mL
MIC [9]: 0.031 µg/mL
MIC (strain #12 Escherichia coli): 0.031 µg/mL
MIC (strain #13 Escherichia coli): 0.063 µg/mL
MIC (strain #14 Klebsiella oxytoca): 0.13 µg/mL
MIC [10]: 0.13 µg/mL
MIC [11]: ≤ 0.008 µg/mL
MIC (strain #17 Morganella Morganii): 0.5 µg/mL
MIC (strain #18 Morganella Morganii): 0.5 µg/mL
MIC (strain #19 Proteus vulgaris): 0.25 µg/mL
MIC (strain #20 Proteus mirabilis): 0.063 µg/mL
MIC [12]: 0.25 µg/mL
MIC [13]: 0.063 µg/mL
MIC (strain #23 Serratia marcescens): 0.13 µg/mL
MIC (strain #24 Serratia marcescens): 0.13 µg/mL
MIC [14]: 0.063 µg/mL
MIC (strain #26 Shigella sonnei): 0.063 µg/mL
MIC (strain #27 Shigella flexneri): 0.063 µg/mL
MIC [15]: 0.13 µg/mL
MIC (strain #29 Pseudomonas aeruginosa): 1 µg/mL
MIC (strain #30 Pseudomonas aeruginosa): 1 µg/mL
MIC (strain #31 Pseudomonas aeruginosa, Ofx-R): 0.5 µg/mL
MIC (strain #32 Pseudomonas aeruginosa, Cf-R): 1 µg/mL
MIC (strain #33 Pseudomonas aeruginosa, Ci-R): 1 µg/mL
MIC (strain #34 Pseudomonas aeruginosa, Gen-R): 1 µg/mL
MIC (strain #35 Pseudomonas aeruginosa, Ip-R): 4 µg/mL
MIC (strain #36 Pseudomonas aeruginosa, Cf-R, Ci-R, Mp-R): 8 µg/mL

C[C@@H](O)C1C(=O)N2C(C(=O)O)=C(CN3CC[C@@H](N)C3)[C@H](C)C12 (stereo partly drawn) [Compound 151]
MIC [1]: 0.25 µg/mL (≈ 0.808 µM)
MIC [2]: 0.5 µg/mL (≈ 1.62 µM)
MIC [3]: 2 µg/mL (≈ 6.46 µM)
MIC [4]: 1 µg/mL (≈ 3.23 µM)
MIC (strain #5 Citrobacter diversus): 0.25 µg/mL (≈ 0.808 µM)
MIC (strain #6 Citrobacter freundii): 0.5 µg/mL (≈ 1.62 µM)
MIC [5]: 2 µg/mL (≈ 6.46 µM)
MIC [6]: 0.25 µg/mL (≈ 0.808 µM)
MIC [7]: 0.5 µg/mL (≈ 1.62 µM)
MIC [8]: 0.25 µg/mL (≈ 0.808 µM)
MIC [9]: 0.25 µg/mL (≈ 0.808 µM)
MIC (strain #12 Escherichia coli): 0.25 µg/mL (≈ 0.808 µM)
MIC (strain #13 Escherichia coli): 0.5 µg/mL (≈ 1.62 µM)
MIC (strain #14 Klebsiella oxytoca): 0.5 µg/mL (≈ 1.62 µM)
MIC [10]: 0.5 µg/mL (≈ 1.62 µM)
MIC [11]: ≤ 0.008 µg/mL
MIC (strain #17 Morganella Morganii): 4 µg/mL (≈ 12.9 µM)
MIC (strain #18 Morganella Morganii): 4 µg/mL (≈ 12.9 µM)
MIC (strain #19 Proteus vulgaris): 1 µg/mL (≈ 3.23 µM)
MIC (strain #20 Proteus mirabilis): 0.5 µg/mL (≈ 1.62 µM)
MIC [12]: 2 µg/mL (≈ 6.46 µM)
MIC [13]: 0.5 µg/mL (≈ 1.62 µM)
MIC (strain #23 Serratia marcescens): 1 µg/mL (≈ 3.23 µM)
MIC (strain #24 Serratia marcescens): 1 µg/mL (≈ 3.23 µM)
MIC [14]: 0.5 µg/mL (≈ 1.62 µM)
MIC (strain #26 Shigella sonnei): 0.5 µg/mL (≈ 1.62 µM)
MIC (strain #27 Shigella flexneri): 0.25 µg/mL (≈ 0.808 µM)
MIC [15]: 0.25 µg/mL (≈ 0.808 µM)

C[C@@H](O)C1C(=O)N2C(C(=O)O)=C(CN3CC[C@H](O)C3)[C@H](C)C12 (stereo partly drawn) [Compound 146]
MIC [1]: 1 µg/mL (≈ 3.22 µM)
MIC [2]: 1 µg/mL (≈ 3.22 µM)
MIC [3]: 2 µg/mL (≈ 6.44 µM)
MIC [4]: 4 µg/mL (≈ 12.9 µM)
MIC (strain #5 Citrobacter diversus): 0.5 µg/mL (≈ 1.61 µM)
MIC (strain #6 Citrobacter freundii): 0.5 µg/mL (≈ 1.61 µM)
MIC [5]: 2 µg/mL (≈ 6.44 µM)
MIC [6]: 0.25 µg/mL (≈ 0.806 µM)
MIC [7]: 1 µg/mL (≈ 3.22 µM)
MIC [8]: 0.25 µg/mL (≈ 0.806 µM)
MIC [9]: 0.25 µg/mL (≈ 0.806 µM)
MIC (strain #12 Escherichia coli): 0.5 µg/mL (≈ 1.61 µM)
MIC (strain #13 Escherichia coli): 0.5 µg/mL (≈ 1.61 µM)
MIC (strain #14 Klebsiella oxytoca): 1 µg/mL (≈ 3.22 µM)
MIC [10]: 1 µg/mL (≈ 3.22 µM)
MIC [11]: 0.016 µg/mL (≈ 0.0516 µM)
MIC (strain #17 Morganella Morganii): 8 µg/mL (≈ 25.8 µM)
MIC (strain #18 Morganella Morganii): 8 µg/mL (≈ 25.8 µM)
MIC (strain #19 Proteus vulgaris): 4 µg/mL (≈ 12.9 µM)
MIC (strain #20 Proteus mirabilis): 0.5 µg/mL (≈ 1.61 µM)
MIC [12]: 2 µg/mL (≈ 6.44 µM)
MIC [13]: 0.5 µg/mL (≈ 1.61 µM)
MIC (strain #23 Serratia marcescens): 2 µg/mL (≈ 6.44 µM)
MIC (strain #24 Serratia marcescens): 2 µg/mL (≈ 6.44 µM)
MIC [14]: 0.5 µg/mL (≈ 1.61 µM)
MIC (strain #26 Shigella sonnei): 0.5 µg/mL (≈ 1.61 µM)
MIC (strain #27 Shigella flexneri): 0.25 µg/mL (≈ 0.806 µM)
MIC [15]: 0.5 µg/mL (≈ 1.61 µM)
